Results from PubChem BioAssay (NCI).
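In this assay, cells in 96-well plates receive the compound at five concentrations for 48 hours. Endpoints are linearly interpolated between the surrounding concentrations. GI50: concentration for 50% inhibition of growth. At the TGI there is no net growth.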

Tests used:
Test in all cases: NCI-60 cell line screen, 48 h
[1] = test system: 786-0 renal
[2] = test system: HCT-116 colon
[3] = test system: HCT-15 colon
[4] = test system: HOP-92 NSCLC
[5] = test system: IGROV1 ovarian
[6] = test system: LOX IMVI melanoma
[7] = test system: NCI-H226 lung
[8] = test system: NCI-H522 lung
[9] = test system: OVCAR-3 ovarian
[10] = test system: OVCAR-8 ovarian
[11] = test system: RPMI-8226 leukemia
[12] = test system: RXF 393 renal
[13] = test system: SR leukemia
[14] = test system: TK-10 renal
[15] = test system: U251 CNS
[16] = test system: A498 renal
[17] = test system: HT29 colon
[18] = test system: NCI-H23 lung

| Structure (SMILES) | TGI [1] [µM] | TGI [2] [µM] | TGI [3] [µM] | TGI [4] [µM] | TGI [5] [µM] | TGI [6] [µM] | TGI [7] [µM] | TGI [8] [µM] | TGI [9] [µM] | TGI [10] [µM] | TGI [11] [µM] | TGI [12] [µM] | TGI [13] [µM] | TGI [14] [µM] | TGI [15] [µM] | TGI [16] [µM] | TGI [17] [µM] | TGI [18] [µM] | GI50 [2] [µM] |
| --- | --- | --- | --- | --- | --- | --- | --- | --- | --- | --- | --- | --- | --- | --- | --- | --- | --- | --- | --- |
| Cc1cc2c(cc1C)C(=O)C1(C2)Cc2c(ccc(C)c2C)C1=O (stereo not drawn) | > 100 | > 100 | > 100 | > 100 | > 100 | > 100 | > 100 | > 100 | > 100 | > 100 | > 100 | > 100 | > 100 | > 100 | > 100 |  |  |  |  |
| CC1(Br)C(=O)NC(=O)N(C2CC(N=[N+]=[N-])C(CO)O2)C1N=[N+]=[N-] (stereo not drawn) | > 100 |  | > 100 | > 100 | > 100 | > 100 |  | 66.8 | > 100 | > 100 | > 100 | > 100 |  | > 100 | > 100 | > 100 | > 100 | > 100 |  |
| O=C1C[C@@H](Sc2ccccc2)C2(OCCO2)[C@H]2ON3CCC[C@@H]3[C@@H]12 | 4.83 | 2.99 | 9.7 | 11.4 | 4.87 | 11.8 | 34.5 |  | 9.15 | 5.57 | 8.94 |  | 10.4 | 19.3 | 18 | 30.5 | 2.86 | 17.9 |  |
| NNc1ccccc1Cl | > 100 | > 100 | > 100 | > 100 | > 100 | > 100 | > 100 | > 100 | > 100 | > 100 | > 100 | > 100 |  | > 100 | > 100 | > 100 | > 100 | > 100 |  |
| COc1ccc2nc(NC(=O)C(=O)C(C(=O)c3ccccc3-c3ccccc3)C3OC(=O)c4ccccc43)sc2c1 (stereo not drawn) | 31.7 | 27.6 |  | 35.2 | 71.7 | 35.4 | 21.2 | 23.8 | 48.2 | 59.3 | 51.9 | 23.8 |  | 48.9 | 25.9 | 40.8 | > 100 | 30.5 |  |
| CC(C)=C[C@@H]1C[C@H](C)c2c(O)cc(C)c3c2C1=C(C)C(=O)C3=O | 36.1 | 28.5 | 29.4 | 26.9 | 35.2 | 33.3 | 33 | 28.8 | 32.1 | 35.2 | 41.6 |  |  | 45.9 | 26.7 | 37.4 | 40.6 | 32.5 |  |
| COc1ccc2oc(=O)c(CC=C(C)C)c(O)c2c1C | > 100 | > 100 | > 100 |  | > 100 | > 100 | > 100 | > 100 | > 100 | > 100 | > 100 |  | > 100 | > 100 | > 100 | > 100 | > 100 | > 100 |  |
| O=C(O)Cc1cccc2c1OC(c1ccccc1)C(C(=O)c1ccccc1)C2=O (stereo not drawn) | > 100 | > 100 | > 100 |  | > 100 | > 100 | > 100 | > 100 | > 100 | > 100 | > 100 | > 100 | > 100 | 79.9 | > 100 |  |  | > 100 |  |
| CCOC(=O)CCC(C(=O)OCC)n1nnc2ccc(Nc3c(C)[n+]([O-])c4cc(Cl)ccc4[n+]3[O-])cc21 (stereo not drawn) | > 100 | > 100 | 58.2 | 38.7 | 79 | 35.7 | 81.5 | 47 | 34.4 | 55.5 | 47 | 60.8 | > 100 | > 100 | > 100 |  | 68.9 | 69.4 |  |
| O=C(Nc1nc2ccccc2n1Cc1ccc(Cl)cc1)NC12CC3CC(CC(C3)C1)C2 | 58.4 | 64 | > 100 | 56.8 | > 100 | > 100 | 70.7 | 42.7 | 60.7 |  | > 100 | 64.5 | > 100 | > 100 | 46.9 |  | > 100 | 58.4 |  |
| COc1ccc(OC)c(C#Cc2ccc(OC)c(C(=O)NCCc3ccc(F)cc3)c2)c1 | > 100 | > 100 | > 100 |  | > 100 | > 100 |  | > 100 |  | > 100 | > 100 |  | > 100 | > 100 | > 100 | > 100 | > 100 | > 100 | 4.7 |
| Cc1nc(-c2nc(C)c(C(=O)NN(C)C)s2)sc1C(=O)NN(C)C | > 100 |  | > 100 | > 100 | > 100 | 48.9 | > 100 | > 100 | > 100 | > 100 | 91.2 |  | 40.7 | > 100 | > 100 | > 100 | > 100 | > 100 |  |
| CC1(c2nc3ccccc3[nH]2)CCC(C(N)=O)C(C)(C)O1 (stereo not drawn) | > 100 | > 100 | > 100 | > 100 | > 100 | > 100 | > 100 | > 100 | > 100 | > 100 | > 100 | > 100 | > 100 | > 100 | > 100 |  | > 100 | > 100 |  |
| COc1ccc(C2CC(=O)CC(c3ccc(OC)cc3)C23C(=O)NC(=S)NC3=O)cc1 (stereo not drawn) | > 100 | > 100 | > 100 | > 100 | > 100 | > 100 | > 100 | > 100 | > 100 | > 100 |  | > 100 | > 100 | > 100 | > 100 |  | > 100 | > 100 |  |
